Source: patent US11780830B2, “Triazolone derivatives or salts thereof and pharmaceutical compositions comprising the same” (YUHAN CORPORATION, priority 2018, dated 2023)
Structures can show the parent of a compound that is named as a salt.

Assays:
Assay type in all cases: biochemical
recombinant human VAP-1 = biological target: T1, recombinant human VAP-1 (Homo sapiens, UniProt Q16853); test: Activity on recombinant human VAP-1, HRP-coupled Amplex Red hydrogen peroxide assay; conditions: substrate 1 mM benzylamine; compound incubated with enzyme at 37° C. for 30 minutes; pH 7.4; read-out: Inhibitory Activity (IC50, nM) human VAP-1
T1 construct: purchased R&D systems
T1 sequence (Q16853 1-763): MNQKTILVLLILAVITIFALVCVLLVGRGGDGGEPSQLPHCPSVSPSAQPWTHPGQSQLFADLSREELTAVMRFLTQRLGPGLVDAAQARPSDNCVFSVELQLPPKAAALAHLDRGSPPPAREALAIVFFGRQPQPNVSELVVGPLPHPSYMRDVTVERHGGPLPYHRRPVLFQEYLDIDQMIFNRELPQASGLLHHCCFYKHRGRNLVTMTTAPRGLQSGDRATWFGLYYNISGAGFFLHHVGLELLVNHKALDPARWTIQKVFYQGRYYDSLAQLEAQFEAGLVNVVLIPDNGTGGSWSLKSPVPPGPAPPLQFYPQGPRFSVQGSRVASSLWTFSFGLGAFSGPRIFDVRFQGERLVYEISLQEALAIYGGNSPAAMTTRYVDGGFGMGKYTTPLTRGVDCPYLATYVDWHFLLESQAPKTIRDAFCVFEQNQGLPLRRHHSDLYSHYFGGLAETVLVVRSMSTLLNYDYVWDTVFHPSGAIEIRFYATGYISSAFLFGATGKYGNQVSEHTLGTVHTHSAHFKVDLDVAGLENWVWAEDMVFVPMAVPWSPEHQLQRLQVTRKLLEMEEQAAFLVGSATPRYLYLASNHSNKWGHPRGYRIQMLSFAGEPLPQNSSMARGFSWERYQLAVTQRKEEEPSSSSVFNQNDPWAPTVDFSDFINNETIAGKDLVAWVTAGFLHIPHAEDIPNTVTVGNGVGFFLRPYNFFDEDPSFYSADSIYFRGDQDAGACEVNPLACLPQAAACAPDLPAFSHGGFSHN
Description: (§1) The compounds according to the present technology were evaluated in terms of activity on recombinant human VAP-1 (R&D systems) by measuring the level of hydrogen peroxide in horseradish peroxidase (HRP)-coupled reaction using Amplex Red Hydrogen Peroxide Assay Kit (Molecular Probes, Invitrogen, USA). The experiment was carried out at room temperature using benzylamine as a substrate. In the HRP-coupled reaction, hydrogen peroxide oxidation of 10-acetyl-3,7-dihydroxyphenoxazine (Amplex Red reagent) produces resorufin, which is a highly fluorescent compound. Briefly, the test compound was dissolved in dimethyl sulfoxide (DMSO) at a concentration of 20 mM. The dose-response assessment was made by 1:3 serial dilution in DMSO, thereby creating an 8 point curve. The concentration of the upper part was controlled according to the efficacy of the compounds, followed by dilution with a reaction buffer solution to obtain a final DMSO concentration less than 1%. To each well of a 96 black well plate, human VAP-1 purified in 50 mM sodium phosphate buffer solution (pH7.4) was added. The test compounds dissolved in DMSO were incubated with the human VAP-1 enzymes at 37° C. for 30 minutes. After 30-minute incubation, each well is added with a reaction mixture containing 200 uM Amplex Red reagent prepared from 50 mM sodium phosphate buffer solution (pH 7.4), 1 mM benzylamine, and 1 U/mL HRP. Fluorescence intensity was measured at several time points during 1-2 hours using a microplate reader (Flexstation3, Molecular Devices) under the wavelength condition exciting at 544 nm and reading the emission at 590 nm. The inhibitory effect of the compounds was measured as a decrease (%) in the signal rate as compared to the control group without any inhibitor (only diluted DMSO). Data was fixed to a logistic model with four variables and IC50 value was calculated using GraphPad Prism program.

[1] = biological target: T2, recombinant human MAO-A (monoamine oxidase-A) (Homo sapiens, UniProt P21397); test: Activity on recombinant human MAO-A, method similar to the VAP-1 assay; conditions: substrate 0.5 mM tyramine; read-out: Inhibitory Activity (IC50, nM) MAO-A
T2 construct: purchased Sigma-Aldrich
T2 sequence (P21397 1-527): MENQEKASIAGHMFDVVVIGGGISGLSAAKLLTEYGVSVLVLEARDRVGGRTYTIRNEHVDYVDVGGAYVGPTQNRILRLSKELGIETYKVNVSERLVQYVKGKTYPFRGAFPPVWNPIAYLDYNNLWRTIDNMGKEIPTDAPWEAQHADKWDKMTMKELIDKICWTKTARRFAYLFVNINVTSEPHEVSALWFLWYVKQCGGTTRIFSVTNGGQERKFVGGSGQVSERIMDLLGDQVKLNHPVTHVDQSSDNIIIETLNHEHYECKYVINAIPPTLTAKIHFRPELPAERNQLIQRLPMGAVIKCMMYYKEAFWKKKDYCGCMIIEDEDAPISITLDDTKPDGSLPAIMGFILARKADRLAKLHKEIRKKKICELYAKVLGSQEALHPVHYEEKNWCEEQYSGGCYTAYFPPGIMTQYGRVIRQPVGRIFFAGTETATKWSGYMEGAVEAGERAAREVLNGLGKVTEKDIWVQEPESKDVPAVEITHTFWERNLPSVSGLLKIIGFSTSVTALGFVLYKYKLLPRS
Description: as §1
(§2) In addition, the compounds according to the present technology were evaluated in terms of activity on a recombinant human MAO-A (monoamine oxidase-A, Sigma-Aldrich) and a recombinant human MAO-B (monoamine oxidase-B, Sigma-Aldrich) by using as substrates, 0.5 mM tyramine and 1 mM benzylamine, respectively, with a method similar to the activity evaluation method for recombinant human VAP-1. The compounds according to the present technology were also evaluated in terms of activity on a recombinant human DAO (diamine oxidase, R&D systems) by using as a substrate 1 mM putrescine with a method similar to the activity evaluation method for recombinant human VAP-1.

[2] = biological target: T3, recombinant human MAO-B (monoamine oxidase-B) (Homo sapiens, UniProt P27338); test: Activity on recombinant human MAO-B, method similar to the VAP-1 assay; conditions: substrate 1 mM benzylamine; read-out: Inhibitory Activity (IC50, nM) MAO-B
T3 construct: purchased Sigma-Aldrich
T3 sequence (P27338 1-520): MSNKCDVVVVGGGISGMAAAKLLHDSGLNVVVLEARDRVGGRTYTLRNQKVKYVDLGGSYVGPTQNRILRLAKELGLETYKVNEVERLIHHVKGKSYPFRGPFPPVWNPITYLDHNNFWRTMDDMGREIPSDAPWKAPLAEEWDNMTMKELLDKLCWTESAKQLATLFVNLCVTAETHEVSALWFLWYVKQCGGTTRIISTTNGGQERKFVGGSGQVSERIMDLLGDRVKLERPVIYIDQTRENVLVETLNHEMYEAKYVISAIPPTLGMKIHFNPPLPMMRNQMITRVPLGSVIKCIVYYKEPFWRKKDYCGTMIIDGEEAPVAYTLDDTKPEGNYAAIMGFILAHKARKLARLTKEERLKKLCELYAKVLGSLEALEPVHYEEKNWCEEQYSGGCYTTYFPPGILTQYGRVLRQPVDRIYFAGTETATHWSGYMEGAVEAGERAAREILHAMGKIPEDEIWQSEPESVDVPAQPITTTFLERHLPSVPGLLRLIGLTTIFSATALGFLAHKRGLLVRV
Description: as §1, §2

[3] = biological target: T4, recombinant human DAO (diamine oxidase) (Homo sapiens, UniProt P19801); test: Activity on recombinant human DAO, method similar to the VAP-1 assay; conditions: substrate 1 mM putrescine; read-out: Inhibitory Activity (IC50, nM) DAO
T4 construct: purchased R&D systems
T4 sequence (P19801 20-751): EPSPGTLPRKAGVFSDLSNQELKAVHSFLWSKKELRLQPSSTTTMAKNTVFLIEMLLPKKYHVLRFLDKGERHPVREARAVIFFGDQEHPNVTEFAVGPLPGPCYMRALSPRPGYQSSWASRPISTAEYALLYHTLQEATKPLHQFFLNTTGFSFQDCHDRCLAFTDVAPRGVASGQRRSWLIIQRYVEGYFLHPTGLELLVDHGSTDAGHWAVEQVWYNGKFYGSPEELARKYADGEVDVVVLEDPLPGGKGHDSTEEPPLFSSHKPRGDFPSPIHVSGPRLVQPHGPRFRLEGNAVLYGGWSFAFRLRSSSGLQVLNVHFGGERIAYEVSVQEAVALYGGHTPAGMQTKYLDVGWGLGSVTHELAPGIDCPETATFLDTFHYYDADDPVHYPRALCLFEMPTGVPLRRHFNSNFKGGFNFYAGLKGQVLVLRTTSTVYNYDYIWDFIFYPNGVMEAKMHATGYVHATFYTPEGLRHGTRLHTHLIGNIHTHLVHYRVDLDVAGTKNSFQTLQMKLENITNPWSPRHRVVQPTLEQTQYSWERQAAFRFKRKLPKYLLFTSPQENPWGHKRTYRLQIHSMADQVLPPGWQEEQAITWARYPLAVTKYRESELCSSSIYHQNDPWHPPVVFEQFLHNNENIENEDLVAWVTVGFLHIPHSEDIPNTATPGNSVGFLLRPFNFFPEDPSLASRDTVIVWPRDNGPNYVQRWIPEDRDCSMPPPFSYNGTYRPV
Description: as §1, §2

Row | Structure (SMILES) | IC50 (recombinant human VAP-1) | IC50 [1] | IC50 [2] | IC50 [3]
1 | CN(C)S(=O)(=O)c1ccc(-c2ccc(Cn3cnn(C/C(=C/F)CN)c3=O)s2)cc1 [Example 9, 4-[5-(1-[(2E)-2-(aminomethyl)-3-fluoroprop-2-en-1-yl]-5-oxo-1,5-dihydro-4H-1,2,4-triazol-4-ylmethyl)thiophen-2-yl]-N,N-dimethylbenzenesulfonamide hydrochloride] | 1.5 nM | > 100000 nM | 1600 nM | 170 nM
2 | COC(=O)c1ccc(-c2ccc(Cn3cnn(C/C(=C/F)CN)c3=O)s2)cc1 [Example 10, methyl 4-[5-(1-[(2E)-2-(aminomethyl)-3-fluoroprop-2-en-1-yl]-5-oxo-1,5-dihydro-4H-1,2,4-triazol-4-ylmethyl)thiophen-2-yl]benzoate hydrochloride] | 1.5 nM | > 100000 nM | 77 nM | 500 nM
3 | COC(=O)c1cccc(-c2ccc(Cn3cnn(C/C(=C/F)CN)c3=O)s2)c1 [Example 11, methyl 3-[5-(1-[(2E)-2-(aminomethyl)-3-fluoroprop-2-en-1-yl]-5-oxo-1,5-dihydro-4H-1,2,4-triazol-4-ylmethyl)thiophen-2-yl]benzoate hydrochloride] | 1.8 nM | > 100000 nM | 35 nM | 1100 nM
4 | COC(=O)c1ccc(-c2ccc(Cn3cnn(C/C(=C/F)CN)c3=O)s2)cc1F [Example 12, methyl 4-[5-(1-[(2E)-2-(aminomethyl)-3-fluoroprop-2-en-1-yl]-5-oxo-1,5-dihydro-4H-1,2,4-triazol-4-ylmethyl)thiophen-2-yl]-2-fluorobenzoate hydrochloride] | 1.8 nM | > 100000 nM | 110 nM | 200 nM
5 | COC(=O)c1cc(F)cc(-c2ccc(Cn3cnn(C/C(=C/F)CN)c3=O)s2)c1 [Example 13, methyl 3-[5-(1-[(2E)-2-(aminomethyl)-3-fluoroprop-2-en-1-yl]-5-oxo-1,5-dihydro-4H-1,2,4-triazol-4-ylmethyl)thiophen-2-yl]-5-fluorobenzoate hydrochloride] | 0.8 nM | > 100000 nM | 260 nM | 320 nM
6 | NC/C(=C\F)Cn1ncn(Cc2ccc(-c3ccc(F)c(F)c3)s2)c1=O [Example 14, 2-[(2E)-2-(aminomethyl)-3-fluoroprop-2-en-1-yl]-4-[5-(3,4-difluorophenyl)thiophen-2-yl]methyl-2,4-dihydro-3H-1,2,4-triazol-3-one hydrochloride] | 6.5 nM | > 100000 nM | < 100 nM | 2400 nM
7 | NC/C(=C\F)Cn1ncn(Cc2ccc(-c3ccc(F)c(C(F)(F)F)c3)s2)c1=O [Example 15, 2-[(2E)-2-(aminomethyl)-3-fluoroprop-2-en-1-yl]-4-(5-[4-fluoro-3-(trifluoromethyl)phenyl]thiophen-2-ylmethyl)-2,4-dihydro-3H-1,2,4-triazol-3-one hydrochloride] | 0.9 nM | > 100000 nM | 5 nM | 670 nM
8 | COc1ccc(-c2ccc(Cn3cnn(C/C(=C/F)CN)c3=O)s2)cc1OC [Example 16, 2-[(2E)-2-(aminomethyl)-3-fluoroprop-2-en-1-yl]-4-[5-(3,4-dimethoxyphenyl)thiophen-2-yl]methyl-2,4-dihydro-3H-1,2,4-triazol-3-one hydrochloride] | 1.2 nM | > 100000 nM | 300 nM | 2800 nM
9 | COc1cc(-c2ccc(Cn3cnn(C/C(=C/F)CN)c3=O)s2)cc(OC)c1OC [Example 17, 2-[(2E)-2-(aminomethyl)-3-fluoroprop-2-en-1-yl]-4-[5-(3,4,5-trimethoxyphenyl)thiophen-2-yl]methyl-2,4-dihydro-3H-1,2,4-triazol-3-one hydrochloride] | 1.2 nM | > 100000 nM | 1000 nM | 620 nM
10 | COc1cc(COc2c(C)cc(-c3ccc(Cn4cnn(C/C(=C/F)CN)c4=O)s3)cc2C)cc(OC)c1 [Example 18, 2-[(2E)-2-(aminomethyl)-3-fluoroprop-2-en-1-yl]-4-[(5-4-[(3,5-dimethoxybenzyl)oxy]-3,5-dimethylphenylthiophen-2-yl)methyl]-2,4-dihydro-3H-1,2,4-triazol-3-one hydrochloride] | 2.1 nM | 13000 nM | 220 nM | 350 nM
